Assay results from publication PMC9699003, “Arene Variation of Highly Cytotoxic Tridentate Naphthoquinone-Based Ruthenium(II) Complexes and In-Depth In Vitro Studies” (Pharmaceutics, 2022).
Like-named read-outs stand apart in the source and are kept apart here.

Columns and labels:
SW480 cells [1] = assay: Colony formation assay; type: cell-based, human; conditions: SW480, 11 days, relative to untreated control
Procedure: For the colony formation assay, SW480 cells were seeded at a density of 350 cells/2 mL into each well of 6-well plates (CytoOne, tissue culture treated) and left to adhere for 24 h. To determine the long-term effects of the test compounds, the cells were exposed to them for 11 days at 37 °C and 5% CO2. After incubation, the wells were gently washed with 1 mL cold PBS and the colonies were fixed with 1 mL cold (4 °C) 100% methanol (Thermo Fisher, Waltham, MA, USA) for 30 min at 4 °C and washed with 1 mL PBS again. The fixed colonies were stained with 1 mL of 0.5% w/v crystal violet (Sigma-Aldrich) in methanol for 2 min and the plates were washed under tap water. After drying the plates, images of the wells were captured, and colonies were counted with the colony counting function of Fusion Fx7 software (Vilber Lourmat, Collégien, France). Results were normalized to untreated controls. Data are averaged from at least three independent experiments.

SW480 cells [2] = assay: Cellular ruthenium accumulation (ICP-MS); type: cell-based, human; conditions: SW480, 2 h incubation, 37 °C
Procedure: SW480 cells were seeded at densities of 1.8 × 10^5 cells/well in 12-well plates (CytoOne, tissue culture treated) in 1 mL of supplemented MEM per well. (As CH1/PA-1 cells tend to detach during the required washing steps, cellular accumulation studies were performed only in SW480 cells). After 24 h, compounds dissolved in DMSO and diluted in MEM were added to the cells to final concentrations of 2 µM and 5 µM, and cells were incubated at 37 °C for 2 h. During incubation, the cell number was determined from three control wells of a plate seeded in parallel to the treatment plates. After the 2 h incubation, the medium was removed and all wells were washed with 3 × 1 mL PBS, and cells were lysed by adding 400 µL HNO3 per well for 1 h at room temperature. An amount of 300 µL of each lysate was added to 7.7 mL MilliQ water to get a total volume of 8 mL, and determination of the ruthenium content was carried out by ICP-MS. The measured amount of accumulated metal was normalized to the cell number and results were given in fg [Ru]/cell from at least three independent experiments. An Agilent 7800 ICP-MS instrument (Agilent Technologies, Tokyo, Japan) equipped with an Agilent SPS 4 autosampler (Agilent Technologies, Tokyo, Japan) was used to determine the ruthenium content. The ICP-MS parameters were tuned on a daily base to achieve high sensitivity. The ICP-MS was equipped with a MicroMist nebulizer with a sample uptake rate of ∼0.2 mL/min and standard nickel cones. The Agilent MassHunter software package (Workstation Software, Version C.01.04, 2018) was used for data evaluation. The instrumental parameters can be found in the supplementary information (Table S9).

NQO1 (SW480 cells) = molecular target: T1, NQO1 (SW480 cells) (Homo sapiens, UniProt P15559); assay: NQO1 activity assay in cell extracts after treatment; type: cell-based; conditions: SW480, 24 h treatment
T1 construct: impact on NQO1 activity in SW480 (left panel) and CH1/PA-1 (right panel) cell extracts after treatment; endogenous in cells; host or cells: SW480 colon carcinoma cells (ATCC)
Procedure: To determine NQO1 activity, SW480 and CH1/PA-1 cells were seeded into 6-well plates in densities of 2 × 10^5 cells/well in 2 mL supplemented MEM. […] The test substances were dissolved in DMSO/medium. To exclude that assay validity was compromised by the use of DMSO, cells treated with DMSO alone (at concentrations corresponding to those in substance solutions) were measured in parallel. After 24 h drug exposure, the medium was aspirated, and the cells were gently washed twice with PBS. The further steps were performed following the manual instructions of the NQO1 activity assay kit (ab184867, abcam, Cambridge, UK). Protease inhibitor phenylmethylsulfonyl fluoride (PMSF, Merck, Darmstadt, Germany) and phosphatase inhibitor PhosSTOP^TM (Roche, Basel, Switzerland) were applied. For determining the protein concentration, the Micro BCA^TM protein assay (prod # 23235, Thermo Scientific) kit was used. For NQO1 activity determination, 100 µg/mL of total protein was loaded. The development of yellow color was monitored for 5 min in 20-sec intervals with a microplate reader (BioTek ELx808) at 450 nm. The measured data were evaluated according to the instructions of the NQO1 activity assay kit: “NQO1 activity was calculated by subtracting the OD value with Inhibitor from the one without Inhibitor. The activity is expressed as the change in absorbance per minute per amount of sample loaded into the well” [30]. Data are expressed as rates of increase of mean absorbance ± SDs from three independent experiments.

[3] = HPLC-MS stability measurements in PBS; conditions: PBS pH 7.4, 20 °C, 40 µM
Procedure: 4 µL of stock solution was mixed with 990 µL of PBS buffer (pH 7.4) and 6 µL DMSO to obtain a final concentration of 40 µM. After injection, the chromatogram at 225 nm and the corresponding mass spectra (positive mode) were recorded hourly (4 h) and after 24 h at 20 °C. Peak areas were determined by integrating complex signals of the respective chromatogram. The measurements were performed with an HPLC system (Agilent Technologies, […]) equipped with a C18 column (Waters, Atlantis T3 […], 1.0 × 150 mm^2) coupled to an MS (Bruker, amaZon SL, ESI, positive mode) with a flow rate of 0.2 mL/min at 20 °C and a gradient (5–95%) with Milli-Q water/ACN.

[4] = tested on: A549 non-small cell lung cancer cells; conditions: A549, MTT, 96 h exposure; cited from earlier work
[5] = tested on: SW480 colon carcinoma cells; conditions: SW480, MTT, 96 h exposure; cited from earlier work
[6] = tested on: CH1/PA-1 ovarian teratocarcinoma cells; conditions: CH1/PA-1, MTT, 96 h exposure; cited from earlier work
pUC19 plasmid [7] = tested on: pUC19 plasmid; set-up: method as in PMID 34115482; conditions: cited from earlier work
pUC19 plasmid [8] = assay: DNA interaction assay (dsDNA plasmid, agarose gel electrophoresis); type: biochemical; conditions: 50 µM; for open circular (oc) form of pUC19 (single-strand breaks): 37 °C, after 6 h of incubation, control after 6 h 3.6 ± 0.7%; for Influence on pUC19 (in words): up to 6 h
Procedure: The incubation was performed at 37 °C for different time intervals (15 min to 6 h) with continuous shaking. Additionally, 4 µL aliquots of a 6× DNA loading dye (Thermo Fisher) were added to the 20 µL reaction solution, and the DNA samples were separated in a 1% agarose gel in 1 × Tris-Borate-EDTA (TBE) buffer. Electrophoresis was initiated at 60 V for 5 min and continued at 120 V for 90 min in 1 × TBE buffer. For visualization of the DNA modification degree, the agarose gel was stained with ethidium bromide (EtBr) in 1 × TBE (0.75 µg/mL) for 20 min.

[9] = 0.1 µM and 1 µM, compared to untreated control

T1 sequence (P15559 whole entry): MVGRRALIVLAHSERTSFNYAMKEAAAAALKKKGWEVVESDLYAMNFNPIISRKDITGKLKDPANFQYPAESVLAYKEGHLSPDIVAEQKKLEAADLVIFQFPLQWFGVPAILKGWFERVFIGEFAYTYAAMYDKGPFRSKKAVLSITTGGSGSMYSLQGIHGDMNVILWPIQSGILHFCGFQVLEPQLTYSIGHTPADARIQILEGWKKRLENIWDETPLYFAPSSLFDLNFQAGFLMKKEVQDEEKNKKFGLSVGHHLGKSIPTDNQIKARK

CC1=C([O-])C([O-])(n2cccn2)c2ccccc2C1=O.Cc1ccc(C(C)C)cc1.[Ru+2] (racemic) [Compound 1]
Number of colonies (SW480 cells [1]; 0.039 µM): 18 ± 5%
Number of colonies (SW480 cells [1]; 0.078 µM): 3.1 ± 0.8%
Number of colonies (SW480 cells [1]; 0.16 µM): 0.26 ± 0.43%
Ru [102]/cell (cellular accumulation) (SW480 cells [2]; 2 µM): 97 ± 8 fg
Ru [102]/cell (cellular accumulation) (SW480 cells [2]; 5 µM): 299 ± 54 fg
Effect on NQO1 activity (in words) (NQO1 (SW480 cells); [9]): negligible effects
Effect on NQO1 activity (in words) (NQO1 (SW480 cells); 10 µM): lowered NQO1 activity tremendously
Percentage amount of initial complex remaining ([3]; after 24 h): more than 70%
IC50 [4]: 1.2 ± 0.2 µM
IC50 [5]: 0.094 ± 0.031 µM
IC50 [6]: > 50 µM
Influence on pUC19 (in words) (pUC19 plasmid [7]): only a minor influence on pUC19

CC1=C([O-])C([O-])(n2cccn2)c2ccccc2C1=O.[Ru+2].c1ccccc1 (racemic) [Compound 2]
Number of colonies (SW480 cells [1]; 5 µM): 48 ± 9%
Number of colonies (SW480 cells [1]; 10 µM): 20 ± 4%
Number of colonies (SW480 cells [1]; 20 µM): 3.5 ± 1.5%
Ru [102]/cell (cellular accumulation) (SW480 cells [2]; 2 µM): 4.5 ± 0.3 fg
Ru [102]/cell (cellular accumulation) (SW480 cells [2]; 5 µM): 11 ± 2 fg
open circular (oc) form of pUC19 (single-strand breaks) (pUC19 plasmid [8]): 11.8 ± 0.9%

CC1=C([O-])C([O-])(n2cccn2)c2ccccc2C1=O.Cc1ccccc1.[Ru+2] (racemic) [Compound 3]
Number of colonies (SW480 cells [1]; 1.25 µM): 53 ± 8%
Number of colonies (SW480 cells [1]; 2.5 µM): 23 ± 8%
Number of colonies (SW480 cells [1]; 5 µM): 4.3 ± 3.7%
Ru [102]/cell (cellular accumulation) (SW480 cells [2]; 2 µM): 15 ± 2 fg
Ru [102]/cell (cellular accumulation) (SW480 cells [2]; 5 µM): 33 ± 10 fg
open circular (oc) form of pUC19 (single-strand breaks) (pUC19 plasmid [8]): 11.7 ± 1.6%

CC1=C([O-])C([O-])(n2cccn2)c2ccccc2C1=O.[Ru+2].c1ccc2c(c1)CCC2 (racemic) [Compound 4]
Number of colonies (SW480 cells [1]; 0.31 µM): 22 ± 5%
Number of colonies (SW480 cells [1]; 0.63 µM): 5.1 ± 2.1%
Number of colonies (SW480 cells [1]; 1.25 µM): 0.82 ± 0.85%
Ru [102]/cell (cellular accumulation) (SW480 cells [2]; 2 µM): 44 ± 3 fg
Ru [102]/cell (cellular accumulation) (SW480 cells [2]; 5 µM): 100 ± 15 fg
open circular (oc) form of pUC19 (single-strand breaks) (pUC19 plasmid [8]): 12.1 ± 1.9%
Effect on NQO1 activity (in words) (NQO1 (SW480 cells); 10 µM): moderate suppression of enzyme activity

CC1=C([O-])C([O-])(n2cccn2)c2ccccc2C1=O.[Ru+2].c1ccc(-c2ccccc2)cc1 (racemic) [Compound 5]
Number of colonies (SW480 cells [1]; 0.039 µM): 19 ± 7%
Number of colonies (SW480 cells [1]; 0.078 µM): 4.0 ± 2.0%
Number of colonies (SW480 cells [1]; 0.16 µM): 0.22 ± 0.48%
Ru [102]/cell (cellular accumulation) (SW480 cells [2]; 2 µM): 107 ± 14 fg
Ru [102]/cell (cellular accumulation) (SW480 cells [2]; 5 µM): 336 ± 10 fg
Influence on pUC19 (in words) (pUC19 plasmid [8]): only a minor influence on pUC19
Effect on NQO1 activity (in words) (NQO1 (SW480 cells); [9]): negligible effects
Effect on NQO1 activity (in words) (NQO1 (SW480 cells); 10 µM): lowered NQO1 activity tremendously

CC1=C([O-])C([O-])(n2cccn2)c2ccccc2C1=O.Cc1c(C)c(C)c(C)c(C)c1C.[Ru+2] (centres unmarked) [Compound 6]
Number of colonies (SW480 cells [1]; 0.16 µM): 28 ± 12%
Number of colonies (SW480 cells [1]; 0.31 µM): 9.2 ± 3.2%
Number of colonies (SW480 cells [1]; 0.63 µM): 1.2 ± 1.1%
Ru [102]/cell (cellular accumulation) (SW480 cells [2]; 2 µM): 100 ± 15 fg
Ru [102]/cell (cellular accumulation) (SW480 cells [2]; 5 µM): 206 ± 32 fg
Influence on pUC19 (in words) (pUC19 plasmid [8]): only a minor influence on pUC19
Percentage amount of initial complex remaining ([3]; after 4 h): less than 70%

CC1=C(O)C(=O)c2ccccc2C1=O [L, 2-Hydroxy-3-methyl-1,4-naphthoquinone]
Number of colonies (SW480 cells [1]; 50 µM): 62 ± 25%
Number of colonies (SW480 cells [1]; 150 µM): 0 ± 0%
Effect on NQO1 activity (in words) (NQO1 (SW480 cells); 10 µM): moderately inhibited
IC50 [4]: 210 ± 32 µM
IC50 [5]: 116 ± 37 µM
IC50 [6]: 129 ± 29 µM
Influence on pUC19 (in words) (pUC19 plasmid [7]): only a minor influence on pUC19
